Test results: patent US20090246519A1 (priority 2008, published 2009)

Key:
[1] = test system: Strains in all clusters; format: cell-based
[2] = test system: Cluster 1 strains 1A, 13B, 30B; format: cell-based, Rhodotorula mucilaginosa; conditions: highest level of tellurite tolerated by strains when grown on LB-Marine plates
[3] = test system: Cluster 2 strains 28A, 6A; format: cell-based, Bacillus sp.; conditions: highest level of tellurite tolerated by strains when grown on LB-Marine plates
[4] = test system: Cluster 3 strain 14B; format: cell-based, Virgibacillus halodenitrificans

| Compound | Resistance of strains to oxyanion [1] | Maximum [TeO3^2−] [2] | Maximum [TeO3^2−] [3] | Growth of strain 14B in the presence of tellurite ([4]; 150 μg Na2TeO3 ml^−1, on plates and in liquid cultures) | Maximum [TeO3^2−] ([4]; highest level of tellurite tolerated by strains when grown on LB-Marine plates, cluster 3) |
| --- | --- | --- | --- | --- | --- |
| arsenate | resistant | – | – | – | – |
| sodium tellurite [TeO3^2−] | – | 600 µg/mL | 300 µg/mL | grows poorly | 75 to 150 µg/mL |
| O=[Te](=O)(O)O [tellurate] | resistant | – | – | – | – |
| O=[Se](=O)(O)O [selenate] | resistant | – | – | – | – |
